Measured values as given in the kinase profiling compilation of Christmann-Franck et al. (2016).
pKd: −log10 of the molar value.

Tests used:
Assay in all cases: KINOMEscan competition binding
[1] = target: TAOK1 (human) (UniProt Q7L7X3); conditions: compound 1.0 µM
[2] = system: ABL1 (human), P00519 [Y253F]; conditions: compound 1.0 µM
[3] = target: ULK1 (human) (UniProt O75385); conditions: compound 1.0 µM
[4] = target: TLK2 (human) (UniProt Q86UE8); conditions: compound 1.0 µM
[5] = target: MUSK (human) (UniProt O15146); conditions: compound 1.0 µM
[6] = target: AKT2 (human) (UniProt P31751); conditions: compound 1.0 µM
[7] = target: PIP5K1A (human) (UniProt Q99755); conditions: compound 1.0 µM
[8] = target: MATK (human) (UniProt P42679); conditions: compound 1.0 µM
[9] = target: PKN1 (human) (UniProt Q16512); conditions: compound 1.0 µM
[10] = target: RET (human) (UniProt P07949); conditions: compound 1.0 µM
[11] = target: TXK (human) (UniProt P42681); conditions: compound 1.0 µM
[12] = target: MAP3K11 (human) (UniProt Q16584); conditions: compound 1.0 µM
[13] = system: KIT (human), P10721 [A829P]; conditions: compound 1.0 µM
[14] = target: TTK (human) (UniProt P33981); conditions: compound 1.0 µM
[15] = target: AURKB (human) (UniProt Q96GD4); conditions: compound 1.0 µM
[16] = target: PKMYT1 (human) (UniProt Q99640); conditions: compound 1.0 µM
[17] = target: PIP4K2C (human) (UniProt Q8TBX8); conditions: for kinase still bound, per cent of control: compound 1.0 µM
[18] = target: PRKCD (human) (UniProt Q05655); conditions: compound 1.0 µM
[19] = target: TAOK2 (human) (UniProt Q9UL54); conditions: compound 1.0 µM
[20] = target: NEK11 (human) (UniProt Q8NG66); conditions: compound 1.0 µM
[21] = target: PHKG2 (human) (UniProt P15735); conditions: compound 1.0 µM
[22] = target: DYRK2 (human) (UniProt Q92630); conditions: for kinase still bound, per cent of control: compound 1.0 µM
[23] = target: CDK11B (human) (UniProt P21127); conditions: compound 1.0 µM
[24] = target: MAP4K1 (human) (UniProt Q92918); conditions: compound 1.0 µM
[25] = system: RET (human), P07949 [V804M]; conditions: compound 1.0 µM
[26] = target: CSNK2A2 (human) (UniProt P19784); conditions: compound 1.0 µM
[27] = target: CSNK1A1L (human) (UniProt Q8N752); conditions: compound 1.0 µM
[28] = target: CLK3 (human) (UniProt P49761); conditions: compound 1.0 µM
[29] = system: EGFR (human), P00533 [A750P; 747-749 del]; conditions: compound 1.0 µM
[30] = target: PLK2 (human) (UniProt Q9NYY3); conditions: compound 1.0 µM
[31] = target: LYN (human) (UniProt P07948); conditions: compound 1.0 µM
[32] = target: GSK3B (human) (UniProt P49841); conditions: compound 1.0 µM
[33] = target: EPHA8 (human) (UniProt P29322); conditions: compound 1.0 µM
[34] = target: PAK7 (human) (UniProt Q9P286); conditions: compound 1.0 µM
[35] = target: DCLK2 (human) (UniProt Q8N568); conditions: compound 1.0 µM
[36] = target: AURKC (human) (UniProt Q9UQB9); conditions: compound 1.0 µM
[37] = target: MAP3K5 (human) (UniProt Q99683); conditions: compound 1.0 µM
[38] = target: CIT (human) (UniProt O14578); conditions: for kinase still bound, per cent of control: compound 1.0 µM
[39] = system: FLT3 (human), P36888 [R834Q]; conditions: compound 1.0 µM
[40] = target: STK35 (human) (UniProt Q8TDR2); conditions: compound 1.0 µM
[41] = target: TIE1 (human) (UniProt P35590); conditions: compound 1.0 µM
[42] = target: CHUK (human) (UniProt O15111); conditions: compound 1.0 µM
[43] = target: STK24 (human) (UniProt Q9Y6E0); conditions: compound 1.0 µM

KIT (human), P10721 [A829P], sequence (P10721 whole entry A829P, looked up): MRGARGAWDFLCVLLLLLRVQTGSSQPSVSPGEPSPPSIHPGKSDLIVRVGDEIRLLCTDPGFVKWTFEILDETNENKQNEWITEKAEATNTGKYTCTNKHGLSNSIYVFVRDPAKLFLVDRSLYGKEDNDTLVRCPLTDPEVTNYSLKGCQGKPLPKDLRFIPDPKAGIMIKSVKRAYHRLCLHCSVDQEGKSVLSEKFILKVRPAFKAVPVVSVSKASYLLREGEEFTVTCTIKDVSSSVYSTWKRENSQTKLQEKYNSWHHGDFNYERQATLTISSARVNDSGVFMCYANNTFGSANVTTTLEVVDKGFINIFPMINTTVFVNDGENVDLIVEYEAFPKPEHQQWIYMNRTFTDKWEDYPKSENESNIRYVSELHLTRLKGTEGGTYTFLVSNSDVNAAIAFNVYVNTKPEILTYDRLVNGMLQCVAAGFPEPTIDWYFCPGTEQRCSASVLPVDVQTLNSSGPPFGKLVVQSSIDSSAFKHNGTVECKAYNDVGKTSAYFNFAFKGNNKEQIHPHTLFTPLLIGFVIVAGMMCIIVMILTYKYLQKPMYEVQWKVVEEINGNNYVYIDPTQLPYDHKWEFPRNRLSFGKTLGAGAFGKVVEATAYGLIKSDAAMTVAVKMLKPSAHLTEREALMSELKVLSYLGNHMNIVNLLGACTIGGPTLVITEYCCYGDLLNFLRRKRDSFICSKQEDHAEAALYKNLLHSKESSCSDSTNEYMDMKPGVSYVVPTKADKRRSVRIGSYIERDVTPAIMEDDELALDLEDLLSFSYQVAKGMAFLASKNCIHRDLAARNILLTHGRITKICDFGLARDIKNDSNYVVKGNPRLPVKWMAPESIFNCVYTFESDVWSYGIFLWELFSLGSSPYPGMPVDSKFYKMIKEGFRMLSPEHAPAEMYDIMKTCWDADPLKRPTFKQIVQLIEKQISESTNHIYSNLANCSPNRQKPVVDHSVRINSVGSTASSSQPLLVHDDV
PKMYT1 (human), sequence (Q99640 whole entry, looked up): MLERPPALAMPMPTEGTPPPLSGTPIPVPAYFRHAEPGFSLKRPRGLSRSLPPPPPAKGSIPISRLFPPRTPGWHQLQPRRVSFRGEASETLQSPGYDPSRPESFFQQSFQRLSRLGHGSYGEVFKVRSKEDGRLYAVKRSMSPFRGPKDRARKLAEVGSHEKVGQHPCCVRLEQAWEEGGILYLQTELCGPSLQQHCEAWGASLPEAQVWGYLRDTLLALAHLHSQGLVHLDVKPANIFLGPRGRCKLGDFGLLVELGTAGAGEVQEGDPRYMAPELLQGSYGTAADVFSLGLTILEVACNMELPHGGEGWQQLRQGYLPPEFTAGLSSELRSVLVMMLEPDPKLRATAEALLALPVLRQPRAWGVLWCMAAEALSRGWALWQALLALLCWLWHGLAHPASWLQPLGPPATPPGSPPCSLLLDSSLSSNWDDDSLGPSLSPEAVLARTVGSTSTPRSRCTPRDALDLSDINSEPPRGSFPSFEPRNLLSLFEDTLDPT
CHUK (human), sequence (O15111 whole entry, looked up): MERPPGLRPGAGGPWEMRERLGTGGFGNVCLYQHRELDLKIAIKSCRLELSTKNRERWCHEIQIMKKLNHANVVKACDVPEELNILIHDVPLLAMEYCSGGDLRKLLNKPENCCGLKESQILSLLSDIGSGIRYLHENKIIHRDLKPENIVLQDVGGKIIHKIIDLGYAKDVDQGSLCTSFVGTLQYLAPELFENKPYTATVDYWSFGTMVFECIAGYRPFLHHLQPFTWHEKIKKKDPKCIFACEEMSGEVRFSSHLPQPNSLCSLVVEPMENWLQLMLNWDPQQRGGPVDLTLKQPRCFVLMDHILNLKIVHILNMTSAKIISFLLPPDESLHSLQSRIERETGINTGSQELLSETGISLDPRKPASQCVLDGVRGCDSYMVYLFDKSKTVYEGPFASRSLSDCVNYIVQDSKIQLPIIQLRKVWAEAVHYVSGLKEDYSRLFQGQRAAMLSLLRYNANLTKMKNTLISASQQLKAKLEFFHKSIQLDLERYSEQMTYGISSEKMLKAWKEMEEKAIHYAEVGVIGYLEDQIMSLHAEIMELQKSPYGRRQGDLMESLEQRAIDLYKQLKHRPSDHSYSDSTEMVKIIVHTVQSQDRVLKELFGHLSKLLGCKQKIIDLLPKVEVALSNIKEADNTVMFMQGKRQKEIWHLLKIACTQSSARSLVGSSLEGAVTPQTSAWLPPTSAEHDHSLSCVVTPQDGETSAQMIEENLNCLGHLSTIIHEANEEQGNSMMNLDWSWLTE
PIP5K1A (human), sequence (Q99755 whole entry, looked up): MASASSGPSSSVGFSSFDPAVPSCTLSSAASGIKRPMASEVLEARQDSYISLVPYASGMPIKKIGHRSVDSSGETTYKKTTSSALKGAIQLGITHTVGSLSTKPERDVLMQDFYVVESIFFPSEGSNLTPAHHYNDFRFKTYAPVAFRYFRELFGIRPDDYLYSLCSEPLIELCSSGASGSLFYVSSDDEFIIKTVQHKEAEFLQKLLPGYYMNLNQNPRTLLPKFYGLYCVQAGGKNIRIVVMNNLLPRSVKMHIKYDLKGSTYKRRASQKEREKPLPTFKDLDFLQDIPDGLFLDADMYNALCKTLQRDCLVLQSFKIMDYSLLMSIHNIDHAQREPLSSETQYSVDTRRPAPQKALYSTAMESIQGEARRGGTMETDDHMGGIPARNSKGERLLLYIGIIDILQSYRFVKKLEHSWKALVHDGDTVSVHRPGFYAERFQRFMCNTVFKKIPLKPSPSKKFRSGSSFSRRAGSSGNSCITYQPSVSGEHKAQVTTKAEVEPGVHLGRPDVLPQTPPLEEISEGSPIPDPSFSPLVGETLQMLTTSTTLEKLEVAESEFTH
TIE1 (human), sequence (P35590 whole entry, looked up): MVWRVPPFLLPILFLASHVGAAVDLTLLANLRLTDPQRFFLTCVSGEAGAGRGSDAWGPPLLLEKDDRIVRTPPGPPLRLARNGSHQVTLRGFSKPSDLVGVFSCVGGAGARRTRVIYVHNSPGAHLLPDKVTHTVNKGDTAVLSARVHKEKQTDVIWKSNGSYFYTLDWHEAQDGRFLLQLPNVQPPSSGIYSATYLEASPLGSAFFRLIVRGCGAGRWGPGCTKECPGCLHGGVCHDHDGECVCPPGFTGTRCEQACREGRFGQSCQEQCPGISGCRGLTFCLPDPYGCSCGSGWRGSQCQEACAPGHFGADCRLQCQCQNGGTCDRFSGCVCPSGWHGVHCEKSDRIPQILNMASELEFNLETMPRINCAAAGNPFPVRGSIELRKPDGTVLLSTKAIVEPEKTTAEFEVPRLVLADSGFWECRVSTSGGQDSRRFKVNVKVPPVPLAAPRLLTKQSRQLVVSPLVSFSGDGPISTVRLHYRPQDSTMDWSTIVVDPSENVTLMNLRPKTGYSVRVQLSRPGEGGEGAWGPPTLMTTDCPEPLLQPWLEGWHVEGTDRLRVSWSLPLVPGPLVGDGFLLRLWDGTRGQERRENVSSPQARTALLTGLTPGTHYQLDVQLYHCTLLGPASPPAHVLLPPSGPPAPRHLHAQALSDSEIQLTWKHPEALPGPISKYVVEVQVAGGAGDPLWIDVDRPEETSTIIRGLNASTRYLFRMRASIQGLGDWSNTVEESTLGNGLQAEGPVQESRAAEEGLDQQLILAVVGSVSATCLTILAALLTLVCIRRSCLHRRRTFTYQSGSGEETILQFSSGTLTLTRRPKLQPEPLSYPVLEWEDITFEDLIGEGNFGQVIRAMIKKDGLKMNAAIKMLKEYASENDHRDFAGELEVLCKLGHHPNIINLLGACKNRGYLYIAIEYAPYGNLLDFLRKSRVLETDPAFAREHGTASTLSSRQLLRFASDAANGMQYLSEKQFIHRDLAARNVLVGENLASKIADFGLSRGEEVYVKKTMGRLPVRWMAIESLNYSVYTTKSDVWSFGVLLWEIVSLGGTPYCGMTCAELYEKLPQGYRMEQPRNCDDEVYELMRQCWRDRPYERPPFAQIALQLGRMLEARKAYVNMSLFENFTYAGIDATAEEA
EPHA8 (human), sequence (P29322 whole entry, looked up): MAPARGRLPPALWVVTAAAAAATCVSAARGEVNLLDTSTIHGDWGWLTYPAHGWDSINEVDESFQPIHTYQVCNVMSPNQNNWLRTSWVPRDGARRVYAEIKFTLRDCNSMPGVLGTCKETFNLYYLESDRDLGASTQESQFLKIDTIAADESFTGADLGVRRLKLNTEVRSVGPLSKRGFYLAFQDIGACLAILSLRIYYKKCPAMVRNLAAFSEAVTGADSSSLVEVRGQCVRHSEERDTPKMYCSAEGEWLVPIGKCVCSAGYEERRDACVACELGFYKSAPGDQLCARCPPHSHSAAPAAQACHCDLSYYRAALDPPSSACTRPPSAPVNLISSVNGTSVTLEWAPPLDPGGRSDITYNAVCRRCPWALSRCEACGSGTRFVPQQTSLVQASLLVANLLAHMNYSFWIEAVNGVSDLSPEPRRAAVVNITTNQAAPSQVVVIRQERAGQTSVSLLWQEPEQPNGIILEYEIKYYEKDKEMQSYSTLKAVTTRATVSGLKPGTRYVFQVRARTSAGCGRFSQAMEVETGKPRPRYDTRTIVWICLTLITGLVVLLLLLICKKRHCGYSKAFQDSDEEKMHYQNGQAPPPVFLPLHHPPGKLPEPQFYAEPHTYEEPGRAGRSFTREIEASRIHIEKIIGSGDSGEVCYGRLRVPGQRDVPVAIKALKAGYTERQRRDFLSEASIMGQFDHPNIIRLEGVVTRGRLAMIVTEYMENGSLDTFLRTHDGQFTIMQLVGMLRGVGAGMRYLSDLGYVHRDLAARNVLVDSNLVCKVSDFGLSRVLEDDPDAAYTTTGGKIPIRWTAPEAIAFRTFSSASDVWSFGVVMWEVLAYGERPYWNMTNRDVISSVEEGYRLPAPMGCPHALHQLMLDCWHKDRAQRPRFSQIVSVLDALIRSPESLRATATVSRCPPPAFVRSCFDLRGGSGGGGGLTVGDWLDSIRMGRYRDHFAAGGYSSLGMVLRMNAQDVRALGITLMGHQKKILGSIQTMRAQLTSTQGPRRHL

Structure (SMILES): CN(C)C/C=C/C(=O)Nc1cccc(C(=O)Nc2ccc(Nc3nccc(-c4cccnc4)n3)cc2)c1
- kinase still bound, per cent of control [1]: 13%
- kinase still bound, per cent of control [2]: 39%
- kinase still bound, per cent of control [3]: 100%
- kinase still bound, per cent of control [4]: 92%
- kinase still bound, per cent of control [5]: 94%
- kinase still bound, per cent of control [6]: 96%
- kinase still bound, per cent of control [7]: 18%
- kinase still bound, per cent of control [8]: 99%
- kinase still bound, per cent of control [9]: 100%
- kinase still bound, per cent of control [10]: 100%
- kinase still bound, per cent of control [11]: 83%
- kinase still bound, per cent of control [12]: 67%
- kinase still bound, per cent of control [13]: 78%
- kinase still bound, per cent of control [14]: 97%
- kinase still bound, per cent of control [15]: 63%
- kinase still bound, per cent of control [16]: 100%
- pKd [17]: 7.49
- kinase still bound, per cent of control [17]: 3.3%
- kinase still bound, per cent of control [18]: 76%
- kinase still bound, per cent of control [19]: 54%
- kinase still bound, per cent of control [20]: 86%
- kinase still bound, per cent of control [21]: 64%
- pKd [22]: 6.92
- kinase still bound, per cent of control [22]: 3.2%
- kinase still bound, per cent of control [23]: 71%
- kinase still bound, per cent of control [24]: 79%
- kinase still bound, per cent of control [25]: 100%
- kinase still bound, per cent of control [26]: 13%
- kinase still bound, per cent of control [27]: 37%
- kinase still bound, per cent of control [28]: 84%
- kinase still bound, per cent of control [29]: 87%
- kinase still bound, per cent of control [30]: 74%
- kinase still bound, per cent of control [31]: 86%
- kinase still bound, per cent of control [32]: 78%
- kinase still bound, per cent of control [33]: 90%
- kinase still bound, per cent of control [34]: 75%
- kinase still bound, per cent of control [35]: 100%
- kinase still bound, per cent of control [36]: 33%
- kinase still bound, per cent of control [37]: 100%
- kinase still bound, per cent of control [38]: 28%
- kinase still bound, per cent of control [39]: 74%
- kinase still bound, per cent of control [40]: 67%
- kinase still bound, per cent of control [41]: 100%
- kinase still bound, per cent of control [42]: 53%
- kinase still bound, per cent of control [43]: 86%

Structure (SMILES): CN(C)C/C=C/C(=O)Nc1cccc(C(=O)Nc2ccc(Nc3nccc(-c4c(-c5ccccc5)nn5ccccc45)n3)cc2)c1
- kinase still bound, per cent of control [1]: 40%
- kinase still bound, per cent of control [2]: 1.6%
- kinase still bound, per cent of control [3]: 87%
- kinase still bound, per cent of control [4]: 100%
- kinase still bound, per cent of control [5]: 100%
- kinase still bound, per cent of control [6]: 100%
- kinase still bound, per cent of control [7]: 67%
- kinase still bound, per cent of control [8]: 100%
- kinase still bound, per cent of control [9]: 100%
- kinase still bound, per cent of control [10]: 8.3%
- kinase still bound, per cent of control [11]: 24%
- kinase still bound, per cent of control [12]: 71%
- kinase still bound, per cent of control [13]: 71%
- kinase still bound, per cent of control [14]: 94%
- kinase still bound, per cent of control [15]: 85%
- kinase still bound, per cent of control [16]: 100%
- kinase still bound, per cent of control [17]: 86%
- kinase still bound, per cent of control [18]: 100%
- kinase still bound, per cent of control [19]: 31%
- kinase still bound, per cent of control [20]: 100%
- kinase still bound, per cent of control [21]: 100%
- kinase still bound, per cent of control [22]: 100%
- kinase still bound, per cent of control [23]: 43%
- kinase still bound, per cent of control [24]: 69%
- kinase still bound, per cent of control [25]: 100%
- kinase still bound, per cent of control [26]: 100%
- kinase still bound, per cent of control [27]: 5.5%
- kinase still bound, per cent of control [28]: 100%
- kinase still bound, per cent of control [29]: 1.6%
- kinase still bound, per cent of control [30]: 81%
- kinase still bound, per cent of control [31]: 58%
- kinase still bound, per cent of control [32]: 49%
- kinase still bound, per cent of control [33]: 39%
- kinase still bound, per cent of control [34]: 92%
- kinase still bound, per cent of control [35]: 100%
- kinase still bound, per cent of control [36]: 84%
- kinase still bound, per cent of control [37]: 100%
- pKd [38]: 7.02
- kinase still bound, per cent of control [38]: 0.3%
- kinase still bound, per cent of control [39]: 68%
- kinase still bound, per cent of control [40]: 94%
- kinase still bound, per cent of control [41]: 23%
- kinase still bound, per cent of control [42]: 93%
- kinase still bound, per cent of control [43]: 88%

Structure (SMILES): CN(C)C/C=C/C(=O)Nc1cccc(C(=O)Nc2ccc(Nc3nccc(/C(C#N)=C4\Nc5ccccc5S4)n3)cc2)c1
- kinase still bound, per cent of control [1]: 74%
- kinase still bound, per cent of control [2]: 100%
- kinase still bound, per cent of control [3]: 92%
- kinase still bound, per cent of control [4]: 100%
- kinase still bound, per cent of control [5]: 70%
- kinase still bound, per cent of control [6]: 100%
- kinase still bound, per cent of control [7]: 39%
- kinase still bound, per cent of control [8]: 100%
- kinase still bound, per cent of control [9]: 92%
- kinase still bound, per cent of control [10]: 91%
- kinase still bound, per cent of control [11]: 100%
- kinase still bound, per cent of control [12]: 100%
- kinase still bound, per cent of control [13]: 100%
- kinase still bound, per cent of control [14]: 100%
- kinase still bound, per cent of control [15]: 83%
- kinase still bound, per cent of control [16]: 100%
- kinase still bound, per cent of control [17]: 35%
- kinase still bound, per cent of control [18]: 47%
- kinase still bound, per cent of control [19]: 100%
- kinase still bound, per cent of control [20]: 100%
- kinase still bound, per cent of control [21]: 100%
- kinase still bound, per cent of control [22]: 15%
- kinase still bound, per cent of control [23]: 70%
- kinase still bound, per cent of control [24]: 100%
- kinase still bound, per cent of control [25]: 100%
- kinase still bound, per cent of control [26]: 8%
- kinase still bound, per cent of control [27]: 100%
- kinase still bound, per cent of control [28]: 100%
- kinase still bound, per cent of control [29]: 94%
- kinase still bound, per cent of control [30]: 65%
- kinase still bound, per cent of control [31]: 94%
- kinase still bound, per cent of control [32]: 93%
- kinase still bound, per cent of control [33]: 100%
- kinase still bound, per cent of control [34]: 69%
- kinase still bound, per cent of control [35]: 100%
- kinase still bound, per cent of control [36]: 76%
- kinase still bound, per cent of control [37]: 100%
- kinase still bound, per cent of control [38]: 65%
- kinase still bound, per cent of control [39]: 100%
- kinase still bound, per cent of control [40]: 97%
- kinase still bound, per cent of control [41]: 70%
- kinase still bound, per cent of control [42]: 100%
- kinase still bound, per cent of control [43]: 100%
